In ChEMBL document CHEMBL1122409, “Estrogen receptor binding and estrogenic/antiestrogenic effects of two new metabolites of nitromiphene, 2-[p-[2-nitro-1-(4-methoxyphenyl)-2-phenylvinyl]phenoxy]-N-ethylpyrrolidine” (J Med Chem, 1983):
Calls of active or inactive are those of the source. No cut-off for these calls is given here.

Tests used:
[1] = biological target: T1, Estrogen receptor (Rattus norvegicus) (UniProt P06211+Q62986); assay: Antagonistic effect on estradiol benzoate induced uterine weight gain in immature rats at 1E-6M; type: functional; parameters: scale not given: the % may be the effect or the level left
[2] = biological target: T1, Estrogen receptor (Rattus norvegicus); assay: Displacement of [3H]estradiol from rat estrogen receptor; modest estrogenic activity; type: protein assay
[3] = biological target: T1, Estrogen receptor (Rattus norvegicus); assay: Displacement of [3H]estradiol from rat estrogen receptor; inactive; type: protein assay
[4] = biological target: T1, Estrogen receptor (Rattus norvegicus); assay: Antagonistic effect against estradiol benzoate induced uterine weight gain in immature rats at 1E-6M; increased estrogenic activity; type: functional; parameters: scale not given: the % may be the effect or the level left
[5] = biological target: T1, Estrogen receptor (Rattus norvegicus); assay: Displacement of [3H]estradiol from rat estrogen receptor; increased estrogenic activity; type: protein assay

COc1ccc(/C(=C(/c2ccccc2)[N+](=O)[O-])c2ccc(OCCN3CCCC3)cc2)cc1
Activity [1]: 11% | Activity [2]: Weak activity

COc1ccc(C(C(=O)c2ccccc2)c2ccc(OCCN3CCCC3)cc2)cc1 (stereo not given)
Activity [3]: inactive

COc1ccc(/C(=C(/c2ccccc2)[N+](=O)[O-])c2ccc(OCCN3CCCC3=O)cc2)cc1
Activity [4]: 43% | Activity [5]: Active
